From ChEMBL document CHEMBL1201862, “PubChem BioAssay data set” (2004)
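Interpolation was linear, between the two tested concentrations surrounding the appropriate level; five concentrations were tested over 48 hours in 96-well plates. GI50 = concentration required for 50% inhibition of growth.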 Calls of active or inactive are those of the source. Cut-off read from the data, not from the text of the source: active = GI50 up to about 1.1 µM and inactive = higher.

How the values were obtained:
Experiment in all cases: inhibition of tumour cell growth, NCI panel, 48 h
786-0 = test system: 786-0
A498 = test system: A498
A549 = test system: A549
ACHN = test system: ACHN
BT-549 = test system: BT-549
CAKI-1 = test system: CAKI-1
CCRF-CEM = test system: CCRF-CEM
COLO 205 = test system: COLO 205
DU-145 = test system: DU-145
EKVX = test system: EKVX
HCC 2998 = test system: HCC 2998
HCT-116 = test system: HCT-116
HCT-15 = test system: HCT-15
HL-60 = test system: HL-60
HOP-92 = test system: HOP-92
HT-29 = test system: HT-29
Hs-578T = test system: Hs-578T
IGROV-1 = test system: IGROV-1
K562 = test system: K562
KM12 = test system: KM12
LOX IMVI = test system: LOX IMVI
MCF7 = test system: MCF7
MDA-MB-231 = test system: MDA-MB-231
MDA-MB-435 = test system: MDA-MB-435
MOLT-4 = test system: MOLT-4
Malme-3M = test system: Malme-3M
NCI-H226 = test system: NCI-H226
NCI-H23 = test system: NCI-H23
NCI-H460 = test system: NCI-H460
NCI-H522 = test system: NCI-H522
NCI/ADR-RES = test system: NCI/ADR-RES
OVCAR-4 = test system: OVCAR-4
OVCAR-5 = test system: OVCAR-5
OVCAR-8 = test system: OVCAR-8
PC-3 = test system: PC-3
RPMI-8226 = test system: RPMI-8226
RXF 393 = test system: RXF 393
SF-268 = test system: SF-268
SF-295 = test system: SF-295
SF-539 = test system: SF-539
SK-MEL-28 = test system: SK-MEL-28
SK-MEL-2 = test system: SK-MEL-2
SK-MEL-5 = test system: SK-MEL-5
SK-OV-3 = test system: SK-OV-3
SN12C = test system: SN12C
SNB-19 = test system: SNB-19
SNB-75 = test system: SNB-75
SR = test system: SR
SW-620 = test system: SW-620
T47D = test system: T47D
TK-10 = test system: TK-10
U-251 = test system: U-251
UACC-257 = test system: UACC-257
UACC-62 = test system: UACC-62
UO-31 = test system: UO-31
HOP-62 = test system: HOP-62
M14 = test system: M14
MDA-N = test system: MDA-N
OVCAR-3 = test system: OVCAR-3

N#CC(=C1CCN(CCCC(=O)c2ccc(F)cc2)CC1)c1ccccc1
GI50 (786-0): > 100 µM (inactive)
GI50 (A498): > 100 µM (inactive)
GI50 (A549): > 100 µM (inactive)
GI50 (ACHN): > 100 µM (inactive)
GI50 (BT-549): > 100 µM (inactive)
GI50 (CAKI-1): > 100 µM (inactive)
GI50 (CCRF-CEM): > 100 µM (inactive)
GI50 (COLO 205): > 100 µM (inactive)
GI50 (DU-145): > 100 µM (inactive)
GI50 (EKVX): > 100 µM (inactive)
GI50 (HCC 2998): > 100 µM (inactive)
GI50 (HCT-116): > 100 µM (inactive)
GI50 (HCT-15): > 100 µM
GI50 (HL-60): > 100 µM (inactive)
GI50 (HOP-92): > 100 µM (inactive)
GI50 (HT-29): 62.2 µM (inactive)
GI50 (Hs-578T): > 100 µM (inactive)
GI50 (IGROV-1): > 100 µM (inactive)
GI50 (K562): > 100 µM (inactive)
GI50 (KM12): > 100 µM (inactive)
GI50 (LOX IMVI): > 100 µM (inactive)
GI50 (MCF7): > 100 µM (inactive)
GI50 (MDA-MB-231): > 100 µM (inactive)
GI50 (MDA-MB-435): > 100 µM (inactive)
GI50 (MOLT-4): > 100 µM (inactive)
GI50 (Malme-3M): > 100 µM (inactive)
GI50 (NCI-H226): > 100 µM (inactive)
GI50 (NCI-H23): > 100 µM (inactive)
GI50 (NCI-H460): > 100 µM (inactive)
GI50 (NCI-H522): 21.3 µM (inactive)
GI50 (NCI/ADR-RES): > 100 µM (inactive)
GI50 (OVCAR-4): > 100 µM (inactive)
GI50 (OVCAR-5): > 100 µM (inactive)
GI50 (OVCAR-8): > 100 µM (inactive)
GI50 (PC-3): > 100 µM (inactive)
GI50 (RPMI-8226): > 100 µM (inactive)
GI50 (RXF 393): > 100 µM (inactive)
GI50 (SF-268): > 100 µM (inactive)
GI50 (SF-295): > 100 µM (inactive)
GI50 (SF-539): > 100 µM (inactive)
GI50 (SK-MEL-28): > 100 µM (inactive)
GI50 (SK-MEL-2): > 100 µM (inactive)
GI50 (SK-MEL-5): > 100 µM (inactive)
GI50 (SK-OV-3): > 100 µM (inactive)
GI50 (SN12C): > 100 µM (inactive)
GI50 (SNB-19): > 100 µM (inactive)
GI50 (SNB-75): > 100 µM (inactive)
GI50 (SR): > 100 µM (inactive)
GI50 (SW-620): > 100 µM (inactive)
GI50 (T47D): > 100 µM (inactive)
GI50 (TK-10): > 100 µM (inactive)
GI50 (U-251): > 100 µM (inactive)
GI50 (UACC-257): > 100 µM (inactive)
GI50 (UACC-62): > 100 µM (inactive)
GI50 (UO-31): > 100 µM (inactive)

CSCCC(NC(c1ccccc1)c1ccccc1)[PH](=O)O (centres undefined)
GI50 (786-0): > 100 µM (inactive)
GI50 (A549): > 100 µM (inactive)
GI50 (ACHN): > 100 µM (inactive)
GI50 (BT-549): > 100 µM (inactive)
GI50 (CAKI-1): > 100 µM (inactive)
GI50 (CCRF-CEM): > 100 µM (inactive)
GI50 (COLO 205): > 100 µM (inactive)
GI50 (DU-145): > 100 µM (inactive)
GI50 (EKVX): > 100 µM (inactive)
GI50 (HCT-116): > 100 µM (inactive)
GI50 (HCT-15): > 100 µM
GI50 (HL-60): > 100 µM (inactive)
GI50 (HOP-62): > 100 µM (inactive)
GI50 (HOP-92): > 100 µM (inactive)
GI50 (HT-29): > 100 µM (inactive)
GI50 (Hs-578T): > 100 µM (inactive)
GI50 (IGROV-1): > 100 µM (inactive)
GI50 (K562): > 100 µM (inactive)
GI50 (KM12): > 100 µM (inactive)
GI50 (LOX IMVI): > 100 µM (inactive)
GI50 (M14): > 100 µM (inactive)
GI50 (MCF7): > 100 µM (inactive)
GI50 (MDA-MB-435): > 100 µM (inactive)
GI50 (MDA-N): 10 µM (inactive)
GI50 (MOLT-4): > 100 µM (inactive)
GI50 (Malme-3M): > 100 µM (inactive)
GI50 (NCI-H226): > 100 µM (inactive)
GI50 (NCI-H23): > 100 µM (inactive)
GI50 (NCI-H460): > 100 µM (inactive)
GI50 (NCI-H522): > 100 µM (inactive)
GI50 (NCI/ADR-RES): > 100 µM (inactive)
GI50 (OVCAR-3): > 100 µM (inactive)
GI50 (OVCAR-4): > 100 µM (inactive)
GI50 (OVCAR-5): > 100 µM (inactive)
GI50 (OVCAR-8): > 100 µM (inactive)
GI50 (PC-3): > 100 µM (inactive)
GI50 (RPMI-8226): > 100 µM (inactive)
GI50 (SF-268): > 100 µM (inactive)
GI50 (SF-295): > 100 µM (inactive)
GI50 (SK-MEL-28): > 100 µM (inactive)
GI50 (SK-MEL-2): > 100 µM (inactive)
GI50 (SK-MEL-5): > 100 µM (inactive)
GI50 (SK-OV-3): > 100 µM (inactive)
GI50 (SN12C): > 100 µM (inactive)
GI50 (SNB-19): > 100 µM (inactive)
GI50 (SNB-75): > 100 µM (inactive)
GI50 (SR): > 100 µM (inactive)
GI50 (SW-620): > 100 µM (inactive)
GI50 (T47D): > 100 µM (inactive)
GI50 (TK-10): > 100 µM (inactive)
GI50 (U-251): > 100 µM (inactive)
GI50 (UACC-257): > 100 µM (inactive)
GI50 (UACC-62): > 100 µM (inactive)
GI50 (UO-31): > 100 µM (inactive)
